Measurements taken from patent US6613772B1, “Substituted 2-aryl-4-amino-chinazolines, method for the production and use thereof as medicaments” (Aventis Pharma Deutschland GmbH, priority 1997, dated 2003).

Row | melting point | Compound
1 | 216 °C | COc1cc2nc(-c3ccc(C)cc3)nc(N3CC[S+]([O-])CC3)c2cc1OC [Example 77, 2-(4-Methylphenyl)-4-(1-oxothiomorpholino)-6,7-dimethoxyquinazoline]
2 | 141 °C | COc1cc2c(N3CCN(c4ccccn4)CC3)nc(-c3ccc(Cl)cc3)nc2c(OC)c1OC [Example 78, 2-(4-Chlorophenyl)-4-(4-(2-pyridyl)piperazino)-6,7,8-trimethoxyquinazoline]
3 | 109 °C | CCCN(CCC)c1nc(-c2ccc(Cl)cc2)nc2c(OC)c(OC)c(OC)cc12 [Example 80, 2-(4-Chlorophenyl)-4-dipropylamino-6,7,8-trimethoxyquinazoline]
4 | 223 °C | CCCN(CCC)c1nc(-c2ccc(Cl)cc2)nc2cc(OC)c(OC)cc12 [Example 81, 2-(4-Chlorophenyl)-4-dipropylamino-6,7-dimethoxyquinazoline]
5 | 121 °C | CCCN(CCC)c1nc(-c2cc(C(F)(F)F)cc(C(F)(F)F)c2)nc2c(OC)c(OC)c(OC)cc12 [Example 82, 2-(3,5-Bistrifluoromethylphenyl)-4-dipropylamino-6,7,8-trimethoxyquinazoline]
6 | 177 °C | COc1cc2nc(-c3ccc(C)cc3)nc(N3CC(C)OC(C)C3)c2cc1OC (stereo not shown) [Example 83, 2-(4-Methylphenyl)-4-(2,6-dimethylmorpholino)-6,7-dimethoxyquinazoline]
7 | 162 °C | COCCCNc1nc(-c2ccc(C)cc2)nc2cc(OC)c(OC)cc12 [Example 84, 2-(4-Methylphenyl)-4-(3-methoxypropylamino)-6,7-dimethoxyquinazoline]
8 | 165 °C | COc1cc2nc(-c3ccc(Cl)cc3)nc(N3CC(C)OC(C)C3)c2cc1OC (stereo not shown) [Example 85, 2-(4-Chlorophenyl)-4-(2,6-dimethylmorpholino)-6,7-dimethoxyquinazoline]
9 | 240 °C | COCCCNc1nc(-c2ccc(Cl)cc2)nc2cc(OC)c(OC)cc12 [Example 86, 2-(4-Chlorophenyl)-4-(3-methoxypropylamino)-6,7-dimethoxyquinazoline]
10 | 225 °C | COc1cc2nc(-c3ccc(Cl)cc3)nc(N3CCC(C(N)=O)CC3)c2cc1OC [Example 88, 2-(4-Chlorophenyl)-4-(4-aminocarbonylpiperidino)-6,7-dimethoxyquinazoline]
11 | 189 °C | COc1cc2nc(-c3ccc(Cl)cc3)nc(N3CCCCCC3)c2cc1OC [Example 89, 2-(4-Chlorophenyl)-4-hexamethyleneimino-6,7-dimethoxyquinazoline]
12 | 223 °C | COc1cc2nc(-c3ccc(Cl)cc3)nc(N3C[C@@H](C)O[C@@H](C)C3)c2cc1OC [Example 90, 2-(4-Chlorophenyl)-4-(cis-2,6-dimethylmorpholino)-6,7-dimethoxyquinazoline]
13 | 165 °C | COc1cc2nc(-c3ccc(C)cc3)nc(N(C)Cc3cccnc3)c2cc1OC [Example 97, 2-(4-Methylphenyl)-4-(N-methyl-N-(3-pyridylmethyl)amino)-6,7-dimethoxyquinazoline]

The remaining lines, values behind:

Row | Compound | melting point
14 | COc1cc2c(NCc3cccnc3)nc(-c3cc(C(F)(F)F)cc(C(F)(F)F)c3)nc2c(OC)c1OC [Example 65, 2-(3,5-Bistrifluoromethylphenyl)-4-((3-pyridylmethyl)amino)-6,7,8-trimethoxyquinazoline] | 229 °C
15 | COc1cc2c(N3CCSCC3)nc(-c3ccc(Cl)cc3)nc2c(OC)c1OC [Example 66, 2-(4-Chlorophenyl)-4-thiomorpholino-6,7,8-trimethoxyquinazoline] | 174 °C
16 | COc1cc2c(N3CC[S+]([O-])CC3)nc(-c3ccc(Cl)cc3)nc2c(OC)c1OC [Example 68, 2-(4-Chlorophenyl)-4-(1-oxothiomorpholino)-6,7,8-trimethoxyquinazoline] | 198 °C
17 | COc1cc2c(N3CCS(=O)(=O)CC3)nc(-c3ccc(Cl)cc3)nc2c(OC)c1OC [Example 69, 2-(4-Chlorophenyl)-4-(1,1-dioxothiomorpholino)-6,7,8-trimethoxyquinazoline] | 241 °C
18 | COc1cc2nc(-c3ccc(C)cc3)nc(NCc3cccc([N+](=O)[O-])c3)c2cc1OC [Example 72, 2-(4-Methylphenyl)-4-((3-nitrophenylmethyl)amino)-6,7-dimethoxyquinazoline] | 250 °C
19 | COc1ccccc1CCNc1nc(-c2ccc(C)cc2)nc2cc(OC)c(OC)cc12 [Example 73, 2-(4-Methylphenyl)-4-(2-(2-methoxyphenyl)ethylamino)-6,7-dimethoxyquinazoline] | 205 °C
20 | COc1cc2nc(-c3ccc(Cl)cc3)nc(N3CCSCC3)c2cc1OC [Example 74, 2-(4-Chlorophenyl)-4-thiomorpholino-6,7-dimethoxyquinazoline] | 214 °C
21 | COc1cc2nc(-c3ccc(C)cc3)nc(N3CCSCC3)c2cc1OC [Example 75, 2-(4-Methylphenyl)-4-thiomorpholino-6,7-dimethoxyquinazoline] | 213 °C
22 | COc1cc2nc(-c3ccc(Cl)cc3)nc(N3CC[S+]([O-])CC3)c2cc1OC [Example 76, 2-(4-Chlorophenyl)-4-(1-oxothiomorpholino)-6,7-dimethoxyquinazoline] | 226 °C
